# Results taken from patent US5939578A, “Vasomolol: an ultra short-acting and vasodilatory vanilloid type β - adrenoceptor antagonist” (Lin; Tong-Ho, priority 1996, dated 1999).
# Legend:
# [1] = Blood pressure and heart rate responses to intravenous injection in anesthetized rats; format: in vivo, pentobarbital-anesthetized normotensive Wistar rats
# Description: Measurement of blood pressure and heart rate
# The method reported in Gen.
# vasomolol (0.5, 1.0, 3.0 mg/kg)
# [2] = test system: phenylephrine-induced pressor response; experiment: Inhibition of phenylephrine-induced pressor response during intravenous infusion; format: in vivo, reserpinized rats; settings: infusion 300 μg/kg/min; phenylephrine 10 μg/kg i.v.; data not shown
# Description: The method reported in Gen. Pharmacol. 24, 1425, 1993 (by inventor group),
# phenylephrine (10 μg/klg, i.v.)
# [3] = molecular target: T1, β1-adrenoceptor (right atrium) (Cavia porcellus, UniProt H0W3H1); experiment: β-adrenoceptor antagonism in isolated spontaneously-beating right atria (isoproterenol chronotropic response); set-up: species or system guinea-pig
# T1 construct: Spontaneously-beating right atria were removed from the hearts and mounted in a 10 ml organ bath; from tissue; host or cells: isolated guinea-pig (Hartley) right and left atria
# T1 sequence (H0W3H1 1-470): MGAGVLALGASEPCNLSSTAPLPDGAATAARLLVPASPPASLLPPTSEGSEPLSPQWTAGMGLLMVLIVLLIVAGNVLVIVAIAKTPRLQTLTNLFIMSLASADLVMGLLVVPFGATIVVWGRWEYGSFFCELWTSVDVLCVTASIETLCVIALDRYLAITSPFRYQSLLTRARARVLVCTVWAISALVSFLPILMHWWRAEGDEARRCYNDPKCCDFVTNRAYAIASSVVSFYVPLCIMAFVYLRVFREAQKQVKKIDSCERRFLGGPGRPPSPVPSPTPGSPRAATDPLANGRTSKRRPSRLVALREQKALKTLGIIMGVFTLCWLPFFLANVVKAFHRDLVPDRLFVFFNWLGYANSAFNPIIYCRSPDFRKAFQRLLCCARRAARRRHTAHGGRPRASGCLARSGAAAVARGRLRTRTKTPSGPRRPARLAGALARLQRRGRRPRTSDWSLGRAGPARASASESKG
# Description: Guinea-pigs (Hartley) of either sex weighing between 350 and 500 g were sacrificed by a blow on the head. Their hearts and trachea were quickly excised and excess tissue was removed. […] The atrial strip was prestretched to a baseline tension of 0.2 g. […] The atria were then allowed a 30-60 min washout period to estabilize, after which time various concentrations of the test compound were incubated with the atrium 30 min before the cumulative concentrations of the (-) isoproterenol ([…]) was added. All responses to (-) isoproterenol were calculated as a percentage of the maximum control response to (-) isoproterenol.
# (§1) The pA2 values and slope values were calculated from individual Schild plots by regression analysis. The β1 /β2 -selectivity ratio was obtained from the antilogarithm of the difference between the mean pA2 values obtained from right atrium and trachea.
# (§2) Mean cumulative concentration-response curves are shown for the positive chronotropic responses to (-) isoproterenol in spontaneously-beating guinea-pig right atria, positive inotropic responses to (-) isoproterenol in electrically driven guinea-pig left atria, and relaxant effects to (-) isoproterenol in guinea-pig spontaneous tone tracheal strips in the absence (.smallcircle.) or presence of 0.01 (.circle-solid.), 0.1, 1 (.tangle-soliddn.) or 10 (.diamond.) μM of vasomolol.
# [4] = molecular target: T2, β2-adrenoceptor (trachea) (Cavia porcellus, UniProt Q8K4Z4); experiment: β-adrenoceptor antagonism in isolated tracheal strips (isoproterenol-induced relaxation); set-up: species or system guinea-pig
# T2 construct: Guinea-pig trachea were cleaned of extraneous connective tissue and cut into spiral strips; from tissue; host or cells: isolated guinea-pig tracheal spiral strips
# T2 sequence (Q8K4Z4 whole entry): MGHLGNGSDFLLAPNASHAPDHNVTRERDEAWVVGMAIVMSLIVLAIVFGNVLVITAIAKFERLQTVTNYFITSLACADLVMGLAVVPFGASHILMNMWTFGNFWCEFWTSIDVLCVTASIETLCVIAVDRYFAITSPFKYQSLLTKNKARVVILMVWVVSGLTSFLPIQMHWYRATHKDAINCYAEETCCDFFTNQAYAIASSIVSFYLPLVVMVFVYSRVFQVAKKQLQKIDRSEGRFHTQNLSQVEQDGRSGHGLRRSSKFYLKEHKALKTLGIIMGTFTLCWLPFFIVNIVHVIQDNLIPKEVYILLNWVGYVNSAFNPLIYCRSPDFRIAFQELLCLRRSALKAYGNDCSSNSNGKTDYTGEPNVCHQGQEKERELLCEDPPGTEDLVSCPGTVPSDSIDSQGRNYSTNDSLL
# Description: Guinea-pig trachea were cleaned of extraneous connective tissue and cut into spiral strips as described in Gen. […] This spiral strip was cut into two equal segments and both were suspended in organ baths filled with 20 ml of Kreb's solution. […] An initial basal tension of 2 g was applied to each tracheal strip and the tissue was allowed to gain tone spontaneously until a steady level was reached (60 min).
# as §1, §2
# β1/β2-adrenoceptors = experiment: β1/β2-selectivity from mean pA2 values of right atria and trachea; set-up: species or system guinea-pig
# Description: The β1 /β2 -selectivity ratio was obtained from the antilogarithm of the difference between the mean pA2 values obtained from the right atria and trachea as described in J. Pharm. […] The pA2 values and slope values were calculated from individual Schild plots by regression analysis. The β1 /β2 -selectivity ratio was obtained from the antilogarithm of the difference between the mean pA2 values obtained from right atrium and trachea.
# [5] = test system: right atria and left atrial strips; experiment: Intrinsic sympathomimetic activity in isolated right atria and left atrial strips; set-up: species or system reserpinized guinea-pigs; settings: for intrinsic sympathomimetic activity: effect on heart rate and contractility: cumulative concentrations, in words
# Description: Animals were pretreated with reserpine (10 mg/kg, i.p.) 24 hr prior to the experiment described in Naunyn-Schmiedeberg's Arch. […] All preparations including isolated right atria and left atria strips were studied.
# All measurements are expressed as mean percentages of the control frequency or force in the same preparation.
# [6] = molecular target: T3, β-adrenoceptor, ventricular membranes (Sus scrofa, UniProt Q28998); experiment: Competition for [3H]-DHA binding to ventricular membranes; set-up: species or system pig
# T3 construct: tissue local slaughterhouse; host or cells: pig heart ventricular membranes
# T3 sequence (Q28998 whole entry): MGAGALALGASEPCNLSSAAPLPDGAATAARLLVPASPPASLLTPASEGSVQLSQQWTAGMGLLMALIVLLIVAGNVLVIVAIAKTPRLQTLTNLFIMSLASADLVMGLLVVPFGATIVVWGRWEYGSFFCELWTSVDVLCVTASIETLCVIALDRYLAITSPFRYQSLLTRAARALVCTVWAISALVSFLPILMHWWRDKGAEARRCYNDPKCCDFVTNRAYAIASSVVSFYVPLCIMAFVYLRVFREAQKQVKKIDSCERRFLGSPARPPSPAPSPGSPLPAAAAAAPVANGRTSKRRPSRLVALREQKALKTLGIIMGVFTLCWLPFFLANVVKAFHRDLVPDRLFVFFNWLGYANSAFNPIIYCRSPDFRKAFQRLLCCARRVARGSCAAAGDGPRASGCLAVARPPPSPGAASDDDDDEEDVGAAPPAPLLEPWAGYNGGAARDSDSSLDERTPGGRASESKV
# Description: Pig's heart were obtained from a local slaughterhouse immediately after the animals had been killed and transported to our laboratory in ice-cold buffer (250 mM sucrose/50 mM Tris [hydroxymethyl] aminomethane HCl/1 mM magnesium chloride, pH 7.4). Various heart tissues were removed and prepared as detailed as described in Cardiovasc. […] In the test for receptor binding, the ventricles were placed in ice-cold buffer and all subsequent procedures were carried out at 4° C. The tissue was homogenised in 20 volumes of TE buffer (10 mmole.litre^-1 Tris-HCl, 1 mmole.litre^-1 EDTA, 0.1 mmole.litre^-1 ascorbic acid, pH 7.4) with three 12-s pulses using a Polytron homogenizer (Kinematica, Model PT 3000, Switzerland). The homogenate was filtered with pressure through muslin and the filtrate centrifuged for 10 min at 1000 g to remove connective tissue, unbroken cells and cell debris.
# This membrane preparation has been described in Biochem. Biophys. Acta. […] The binding assay of [^3 H]-DHA was carried out as described in Biochem. Biophys. Res. Commun. […] [^3 ]-DHA and ventricular membranes (200-300 μg) were incubated for 60 min at 25° C. with and without the addition of 1 μM alprenolol, in 75 mM Tris-HCI buffer comprising MgCl2 25 mM, to make a final volume of 250 μl. In competitive binding experiments, the competing agent was added directly to the incubation mixture. The incubation was terminated by addition of 1 ml of ice-cold assay buffer followed by immediate filtration through Whatman GF/C glass fiber filters supported on a 12-port filter manifold (Millipore). The filters were immediately washed three times with 5 ml of ice-cold assay buffer and dried in an oven at 60° C. for 2 hr prior to adding 5 ml of Triton-toluene based scintillation fluid.
# In each experiment, non-specifically bound [^3 H]-DHA was determined by incubating membrane protein and [^3 H]-DHA with 1 μM alprenolol. Specific binding was thus obtained by deducing this value from the total binding of [^3 H]-DHA for each sample.
# All incubations were performed as described in the method section. Data shown are the means of three independent duplicate determinations.
# [7] = 0.5 mg/kg i.v., mean ± SEM (n = 8)
# [8] = 1.0 mg/kg i.v., mean ± SEM (n = 8)
# [9] = 3.0 mg/kg i.v., mean ± SEM (n = 8)
compound,measurement,setting,value
CCOC(=O)c1ccc(OCC(O)CNC(C)(C)C)c(OC)c1 (stereo not drawn) [Vasomolol],BP change,[1]; [7],-4.5 ± 1.4 mm Hg
same,HR change,[1]; [7],-20.0 ± 2.3 bpm
same,bradycardia duration,[1]; [7],3.5 ± 0.7 min
same,BP change,[1]; [8],-6.5 ± 1.9 mm Hg
same,HR change,[1]; [8],-34.5 ± 2.8 bpm
same,bradycardia duration,[1]; [8],7.2 ± 0.8 min
same,BP change,[1]; [9],-10.8 ± 1.2 mm Hg
same,HR change,[1]; [9],-50.0 ± 3.4 bpm
same,bradycardia duration,[1]; [9],8.0 ± 1.2 min
same,bradycardia duration,[1]; i.v. injection,less than 10 min
same,blood pressure and heart rate effect,"[1]; i.v. injection 0.5, 1.0, 3.0 mg/kg, in words",produced a hypotensive action and a decrease in heart rate
same,inhibition of phenylephrine-induced pressor response,[2],could not significantly inhibit
same,antagonism of isoproterenol-induced positive chronotropic actions,"[3]; 5×10^-8 -10^-6 M, right atrial strips",caused a dose-dependent parallel shift to the right of the isoproterenol concentration-response curves
same,"pA2 value, β1, right atrium","[3]; mean ± SEM, six to eight experiments, 30 min",7.41 ± 0.05
same,"Schild slope, right atrium",[3]; regression of Schild plot,0.90 ± 0.04
same,relative β2-adrenoceptor blocking potency,[4]; in words,less potent than propranolol
same,"pA2 value, β2, trachea","[4]; mean ± SEM, six to eight experiments, 60 min",5.81 ± 0.11
same,antagonism of (-) isoproterenol-induced relaxation,"[4]; printed 5×10^8 -10^6 M, tracheal strips",competitively antagonized
same,"Schild slope, trachea",[4]; regression of Schild plot,0.81 ± 0.06
same,β1/β2 selectivity in words,β1/β2-adrenoceptors,selective for β1-adrenoceptors
same,β1/β2-selectivity ratio,β1/β2-adrenoceptors; antilogarithm of difference between mean pA2 of right atrium and trachea,39.8
same,potency on right atria versus trachea,β1/β2-adrenoceptors; from mean pA2 values,39.8 times
same,intrinsic sympathomimetic activity: effect on heart rate and contractility,[5],did not induce an increase in the heart rate or contractility
same,intrinsic sympathomimetic activity: effect on heart rate and contractility,[5]; listed as vasomolol,Lack of intrinsic sympathomimetic activity
same,concentration causing negative inotropic and chronotropic effects,[5]; right atria rate and left atria tension,≥ 10^-5 M
same,order of potency inhibiting [3H]-DHA binding,[6]; in words,(-) propranolol>>vasomolol=esmolol
same,IC50,[6]; mean±S.E.M.,4.7 ± 1.5 µM
